Measurements published in patent publication US9493727B2 (priority 2010, dated 2016).
Values joined by “and” are separate entries in the source; they are usually repeats but may differ in a detail not shown here. Equal entries are not always repeated.

Tests used:
[1] = assay type: physicochemical

Compound | Anionic 1 h, emulsion stability, mL separation | Anionic 24 h, emulsion stability, mL separation | Adjuvant 1 h, emulsion stability, mL separation | Nonionic 1 h, emulsion stability, mL separation | Adjuvant 24 h, emulsion stability, mL separation | Nonionic 24 h, emulsion stability, mL separation | % Separation 1 h (C = cream) [1] | % Separation 24 h (C = cream) ([1]; 24 h) | % Separation 24 h (O = oil separated) ([1]; 24 h)
CN(C)CCCNC(=O)CCCCCCC/C=C/CCCCCCCC(=O)NCCCN(C)C [Mix-26, C18 DiDMAPA Amide] | 0 mL | 0 mL | – | – | – | – | – | – | –
C[N+](C)([O-])CCCNC(=O)CCCCCCC/C=C/CCCCCCCC(=O)NCCC[N+](C)(C)[O-] [Mix-29, C18 DiDMAPA DiAO] | 0 mL | 0 mL | 0 mL | 0 mL | 0 mL | – | – | – | –
C=CCCCCCCCC(=O)NCCC[N+](C)(C)[O-] [Sample C10-20, C10 DMAPA AO] | 0 mL | 0 mL | 0 mL | 1 mL | 0 mL | 1 mL | – | – | –
CCCC(CCCCCCCC(=O)NCCC[N+](C)(C)[O-])S(=O)(=O)[O-].[Na+] (centres unmarked) [Sample C12-21, C12 DMAPA AO Sulfonate] | 0 mL | 0 mL | 0 mL | – | 0 mL | – | – | – | –
CCCC(CCCCCCCC(=O)NCCCN(C)C)S(=O)(=O)[O-].[Na+] (centres unmarked) [Sample C12-42, C12 DMAPA Sulfonate] | – | – | – | – | – | – | 3 C % | 3.1 C % and 3.3 C % | –
CCCCCCCC(CCCCCCCC(=O)NCCCN(C)C)S(=O)(=O)[O-].[Na+] (centres unmarked) [Sample C16-11, C16-DMAPA Sulfonate] | – | – | – | – | – | – | 3.1 C % and 2.8 C % | 4 C % and 3.6 C % | –
C[N+](C)([O-])CCCNC(=O)CCCCCCCCC(CCCCCCCC(=O)NCCC[N+](C)(C)[O-])S(=O)(=O)[O-].[Na+] (centres unmarked) [Sample C18-30, C18 DiDMAPA DiAO Sulfonate] | 0 mL | 0 mL | 0 mL | – | 0 mL | – | 3.9 C % and 3.1 C % | 3.5 C, 0.5 O % and 3.6 C % | 3.5 C, 0.5 O %
CN(C)CCCNC(=O)CCCCCCCCC(CCCCCCCC(=O)NCCCN(C)C)S(=O)(=O)[O-].[Na+] (centres unmarked) [Sample C18-68, C18 diDMAPA Amide Sulfonate] | 0 mL | 0 mL | 0 mL | – | 0 mL | – | – | – | –
C16 DMAPA Sulfonate AO [Sample C16-12] | 0 mL | 0 mL | 0 mL | 0.4 mL | 0 mL | 0.5 mL | – | – | –
